# Assay results from US8809358B2, “Use of IκB-kinase inhibitors in pain therapy” (Sanofi-Aventis Deutschland GmbH, priority 2002, dated 2014).
# Tested on: Zymosan-induced paw inflammation
# Assay: Zymosan-induced paw inflammation in the mouse: paw withdrawal time during thermal stimulation of the hind paw
# Format: in vivo
# Conditions: for Statistical difference as compared with the vehicle: thermal hyperalgesia AUC
# Method: • Zymosan-induced paw inflammation in the mouse; • Parameter: paw withdrawal time during thermal stimulation of the hind paw. Experimental implementation: In short-term anesthesia using isoflurane, 25 μl of a suspension containing 50 mg of zymosan/ml were injected into the right hind paw of the experimental animal. The development of a hyperalgesia was then determined quantitatively as follows: Determining the Paw Withdrawal Time During Thermal Stimulation (Hargreave's Test; See Above). The experimental animal was placed in a transparent plastic chamber having a glass floor. As soon as the experimental animal was no longer moving, following the reconnaissance phase (about 5 min), an infrared light source was positioned directly below the hind paw to be stimulated and switched on. The lamp emitted focused infrared light of increasing intensity such that the skin temperature of the hind paw increased almost linearly. As soon as the animal withdrew the paw, the lamp switched itself off. The temperature of the paw at the time it is withdrawn has just become unpleasant for the animal; this is referred to as the thermal pain threshold. Shortly before the zymosan injection, and for from 7 to 14 days after the injection, the thermal pain threshold was determined once daily on the right hind paw and left hind paw. Subsequently, the integral of the area which was formed from the curves for the paw withdrawal times of the inflamed paw and the noninflamed paw (AUC, area between the curves, see tables 5 and 6) was determined as a measure of the hyperalgesia. The larger this value is, the more pronounced is the hyperalgesia, and the smaller the value is in animals which are being given the substance, the greater is the success of the therapy. […] A very high dose of paracetamol was likewise administered twice daily to another group of animals which was taken through the experiment in parallel. […] The scheme for zymosan injection and dosing was identical to that in the previously described study. The only difference was that this additional study ran for 14 days.
structure (smiles),measurement,setting,value
"CNc1nccc(-c2cc3cc(C(=O)N[C@@H](CN(c4ccccc4)c4ccccc4)c4n[nH]c(=O)o4)ccc3[nH]2)n1 [Compound 13, N—[(S)-2-diphenylamino-1-(5-oxo-4,5-dihydro[1,3,4]oxadiazol-2-yl)ethyl]-2-(2-methylaminopyrimidin-4-yl)-1H-indole-5-carboxamide]",activity in the test model,"mouse, 7-day study",very strong activity
same,reduction of thermal hyperalgesia compared with paracetamol,"mouse, 7-day study",to a greater extent
same,"AUC (thermal hyperalgesia), dose dependence","mouse, 7-day study, orally twice daily",decreased in a dose-dependent manner
same,"thermal hyperalgesia, dose dependence","mouse, 14-day study",reduce thermal hyperalgesia in a dose-dependent manner
same,"effect on thermal hyperalgesia at the high dosage, compound 13 versus Celecoxib","mouse, 14-day study, high dosage",equally strong effects
same,Statistical difference as compared with the vehicle,"14 days, 25 mg/kg",yes
same,Statistical difference as compared with the vehicle,"seven days, 2.8 mg/kg orally twice daily",no
same,Statistical difference as compared with the vehicle,"seven days, 25 mg/kg orally twice daily",yes
same,Statistical difference as compared with the vehicle,"seven days, 75 mg/kg orally twice daily",yes
